Results from patent US8415469B2, “Compounds and methods for kinase modulation, and indications therefor” (Plexxikon Inc., priority 2005, dated 2013).
Read-outs that look alike come from different tables or passages of the source.

How the values were obtained:
Type in all cases: biochemical
[1] = molecular target: T1, B-Raf (Homo sapiens, UniProt P15056); assay: AlphaScreen kinase assay, B-Raf
T1 construct: purchased Upstate Biotechnology

[2] = molecular target: T2, B-Raf V600E (Homo sapiens, UniProt P15056, V600E); assay: AlphaScreen kinase assay, B-Raf V600E
T2 construct: P4254. pFastBacBD-CDC37 BRAF D437-K722-X, V600E; His6 with pFastBac HT leader (TEV site) (N); made in house; host or cells: Sf9 (baculovirus; chaperone CDC37 co-expressed)

[3] = molecular target: T3, c-Raf-1 (Homo sapiens, UniProt P04049); assay: AlphaScreen kinase assay, c-Raf-1; conditions: read-out: IC50, activity toward kinase c-Raf-1
T3 construct: purchased Upstate Biotechnology
T3 sequence (P04049 whole entry): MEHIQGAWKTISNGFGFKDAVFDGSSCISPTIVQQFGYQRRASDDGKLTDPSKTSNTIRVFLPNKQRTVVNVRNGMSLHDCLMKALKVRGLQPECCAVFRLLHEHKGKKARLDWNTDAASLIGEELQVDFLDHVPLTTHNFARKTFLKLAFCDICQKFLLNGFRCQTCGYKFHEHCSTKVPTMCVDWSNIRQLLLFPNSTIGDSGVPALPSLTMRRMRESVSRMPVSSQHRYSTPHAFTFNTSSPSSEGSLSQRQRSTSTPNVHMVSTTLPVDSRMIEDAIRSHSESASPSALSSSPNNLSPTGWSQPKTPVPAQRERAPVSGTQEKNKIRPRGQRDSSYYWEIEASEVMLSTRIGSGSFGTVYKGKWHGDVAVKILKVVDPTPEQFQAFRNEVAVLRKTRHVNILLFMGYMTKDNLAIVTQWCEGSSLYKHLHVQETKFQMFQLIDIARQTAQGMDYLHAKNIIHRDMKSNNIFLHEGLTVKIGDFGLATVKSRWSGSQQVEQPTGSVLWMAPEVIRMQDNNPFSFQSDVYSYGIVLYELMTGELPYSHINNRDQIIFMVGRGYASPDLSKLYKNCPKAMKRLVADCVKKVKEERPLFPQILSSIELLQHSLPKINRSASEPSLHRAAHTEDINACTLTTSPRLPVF

[4] = molecular target: T4, Fak (Homo sapiens, UniProt Q05397); assay: AlphaScreen kinase assay, Fak; conditions: read-out: IC50, activity toward kinase Fak
T4 construct: P1358.pFastBacHtb FAK S411-Q686-X; His6 with pFastBacHTb leader (TEV site) (N); made in house; host or cells: Sf9 (baculovirus)
T4 sequence (Q05397 411-686): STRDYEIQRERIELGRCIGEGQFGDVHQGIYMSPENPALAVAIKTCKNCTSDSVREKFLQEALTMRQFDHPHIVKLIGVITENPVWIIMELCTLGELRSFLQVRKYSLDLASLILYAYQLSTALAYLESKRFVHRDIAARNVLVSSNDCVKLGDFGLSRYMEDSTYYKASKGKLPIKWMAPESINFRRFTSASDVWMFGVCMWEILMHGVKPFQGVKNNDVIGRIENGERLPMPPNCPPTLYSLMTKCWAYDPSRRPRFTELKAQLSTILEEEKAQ

[5] = molecular target: T5, FGFR1 (Homo sapiens, UniProt P11362, C488A/C584S); assay: AlphaScreen kinase assay, FGFR1; conditions: read-out: IC50, activity toward kinase FGFR
T5 construct: P1351.pET N6 BI-PTP FGFR A458-E765-X C488A, C584S; made in house; host or cells: E. coli (PTP1B co-expressed)
T5 sequence (P11362 458-765 C488A/C584S): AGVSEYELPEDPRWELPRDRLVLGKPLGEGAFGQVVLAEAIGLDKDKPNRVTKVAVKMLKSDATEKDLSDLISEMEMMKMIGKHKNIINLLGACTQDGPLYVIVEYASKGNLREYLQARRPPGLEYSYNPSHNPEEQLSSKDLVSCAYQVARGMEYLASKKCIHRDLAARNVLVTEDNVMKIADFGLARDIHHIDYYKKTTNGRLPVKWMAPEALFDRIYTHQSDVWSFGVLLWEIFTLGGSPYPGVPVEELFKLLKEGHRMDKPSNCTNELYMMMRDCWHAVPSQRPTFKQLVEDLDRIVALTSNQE

[6] = molecular target: T6, Flt1 (Homo sapiens, UniProt P17948); assay: AlphaScreen kinase assay, Flt1; conditions: read-out: IC50, activity toward kinase Flt1
T6 construct: P1826.pETN6 BI-PTP FLT1 M799-D1165-X WT; His6 (N); made in house; host or cells: E. coli (PTP1B co-expressed)
T6 sequence (P17948 with tags, fused parts or gaps): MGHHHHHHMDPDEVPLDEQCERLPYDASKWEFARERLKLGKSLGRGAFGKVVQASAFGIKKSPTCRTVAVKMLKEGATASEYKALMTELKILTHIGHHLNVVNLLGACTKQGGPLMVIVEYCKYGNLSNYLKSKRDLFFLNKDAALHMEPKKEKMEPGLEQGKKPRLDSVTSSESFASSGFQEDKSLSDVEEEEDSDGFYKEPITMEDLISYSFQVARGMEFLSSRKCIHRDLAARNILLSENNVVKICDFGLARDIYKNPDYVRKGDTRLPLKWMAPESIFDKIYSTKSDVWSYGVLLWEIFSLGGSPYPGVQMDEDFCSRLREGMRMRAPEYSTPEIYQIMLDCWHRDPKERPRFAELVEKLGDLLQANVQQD

[7] = molecular target: T7, Fms (Homo sapiens, UniProt P07333); assay: AlphaScreen kinase assay, Fms; conditions: read-out: IC50, activity toward kinase Fms
T7 construct: purchased Upstate Biotechnology
T7 sequence (P07333 20-972): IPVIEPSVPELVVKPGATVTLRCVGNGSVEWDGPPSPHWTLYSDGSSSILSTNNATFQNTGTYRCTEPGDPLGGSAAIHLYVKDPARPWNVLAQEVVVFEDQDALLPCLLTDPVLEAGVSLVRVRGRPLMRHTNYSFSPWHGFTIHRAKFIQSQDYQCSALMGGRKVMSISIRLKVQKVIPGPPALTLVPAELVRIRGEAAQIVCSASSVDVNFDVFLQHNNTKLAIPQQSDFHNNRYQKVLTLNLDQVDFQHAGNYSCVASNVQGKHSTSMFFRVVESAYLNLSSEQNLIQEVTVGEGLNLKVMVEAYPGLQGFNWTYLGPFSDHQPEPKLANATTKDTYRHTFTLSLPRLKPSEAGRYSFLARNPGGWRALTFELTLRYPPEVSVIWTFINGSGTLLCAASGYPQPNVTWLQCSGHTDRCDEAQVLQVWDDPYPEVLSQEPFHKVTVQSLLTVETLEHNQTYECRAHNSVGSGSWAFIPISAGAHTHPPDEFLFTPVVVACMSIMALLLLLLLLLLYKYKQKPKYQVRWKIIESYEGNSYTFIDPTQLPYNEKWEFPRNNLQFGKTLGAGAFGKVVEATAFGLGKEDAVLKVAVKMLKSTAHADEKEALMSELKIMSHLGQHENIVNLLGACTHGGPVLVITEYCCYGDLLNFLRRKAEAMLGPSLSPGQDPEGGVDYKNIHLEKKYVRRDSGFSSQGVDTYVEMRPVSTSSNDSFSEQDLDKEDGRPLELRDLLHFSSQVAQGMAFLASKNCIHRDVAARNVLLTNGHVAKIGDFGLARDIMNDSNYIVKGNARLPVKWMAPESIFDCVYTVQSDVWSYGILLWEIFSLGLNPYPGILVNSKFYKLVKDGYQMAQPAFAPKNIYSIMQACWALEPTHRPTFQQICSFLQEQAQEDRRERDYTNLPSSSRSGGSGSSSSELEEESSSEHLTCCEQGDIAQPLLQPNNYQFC

[8] = molecular target: T8, Jnk1 (Homo sapiens, UniProt P45983); assay: AlphaScreen kinase assay, Jnk1; conditions: read-out: IC50, activity toward kinase Jnk1
T8 construct: purchased Upstate Biotechnology

[9] = molecular target: T9, Jnk3 (Homo sapiens, UniProt P53779); assay: AlphaScreen kinase assay, Jnk3; conditions: read-out: IC50, activity toward kinase Jnk3
T9 construct: purchased Upstate Biotechnology

[10] = molecular target: T10, Kit (Homo sapiens, UniProt P10721); assay: AlphaScreen kinase assay, Kit; conditions: read-out: IC50, activity toward kinase Kit
T10 construct: P1332.N6 BI PTP KIT M552-K948-X COD; His6 (N); made in house; host or cells: E. coli (PTP1B co-expressed)

[11] = molecular target: T11, Met (Homo sapiens, UniProt P08581); assay: AlphaScreen kinase assay, Met; conditions: read-out: IC50, activity toward kinase Met
T11 construct: P1818.pETN6 BI-PTP MET G1056-G1364-X WT; His6 (N); made in house; host or cells: E. coli (PTP1B co-expressed)
Source text: (§1) AlphaScreen assay was used to screen additional kinases. The assay is similarly dependent on the phosphorylation of a peptide substrate. In this assay, an antibody that recognizes phosphorylated substrate is bound to an acceptor bead. The peptide substrate is attached to biotin, which binds to a donor head that contains streptavidin. Thus phosphorylated substrate is bound by antibody and streptavidin, bringing the donor and acceptor heads into close proximity when kinase is not inhibited. The donor produces singlet oxygen which results in emission from the acceptor when they are in close proximity. Conversely, when kinase is inhibited, the donor and acceptor beads are not associated and the emission from the acceptor is reduced.
(§2) AlphaScreen assays were done using compounds dissolved in DMSO to a concentration of 20 mM. The compounds were diluted accordingly to the desired final concentrations in each sample well, using 1:3 serial dilution for a total of 8 concentration points.

[12] = molecular target: T12, Ret (Homo sapiens, UniProt P07949); assay: AlphaScreen kinase assay, Ret; conditions: read-out: IC50, activity toward kinase Ret
T12 construct: P1378.pET-SF BI-PTP RET H661-R1012 HIS; made in house
T12 sequence (P07949 with tags, fused parts or gaps): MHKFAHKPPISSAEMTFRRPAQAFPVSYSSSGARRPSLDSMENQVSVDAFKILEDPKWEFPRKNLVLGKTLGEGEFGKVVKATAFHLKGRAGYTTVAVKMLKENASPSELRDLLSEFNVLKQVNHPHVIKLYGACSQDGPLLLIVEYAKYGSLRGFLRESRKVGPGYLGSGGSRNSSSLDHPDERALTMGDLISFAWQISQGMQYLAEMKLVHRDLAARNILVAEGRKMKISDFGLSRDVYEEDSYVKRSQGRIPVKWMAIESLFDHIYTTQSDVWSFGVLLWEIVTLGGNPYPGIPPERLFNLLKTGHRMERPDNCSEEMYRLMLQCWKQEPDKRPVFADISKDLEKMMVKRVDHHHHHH

[13] = molecular target: T13, Src (Homo sapiens, UniProt P12931); assay: AlphaScreen kinase assay, Src; conditions: read-out: IC50, activity toward kinase Src
T13 construct: P1144. pET-N6 BI-PTP SRC V86-L536-X; made in house
T13 sequence (P12931 with tags, fused parts or gaps): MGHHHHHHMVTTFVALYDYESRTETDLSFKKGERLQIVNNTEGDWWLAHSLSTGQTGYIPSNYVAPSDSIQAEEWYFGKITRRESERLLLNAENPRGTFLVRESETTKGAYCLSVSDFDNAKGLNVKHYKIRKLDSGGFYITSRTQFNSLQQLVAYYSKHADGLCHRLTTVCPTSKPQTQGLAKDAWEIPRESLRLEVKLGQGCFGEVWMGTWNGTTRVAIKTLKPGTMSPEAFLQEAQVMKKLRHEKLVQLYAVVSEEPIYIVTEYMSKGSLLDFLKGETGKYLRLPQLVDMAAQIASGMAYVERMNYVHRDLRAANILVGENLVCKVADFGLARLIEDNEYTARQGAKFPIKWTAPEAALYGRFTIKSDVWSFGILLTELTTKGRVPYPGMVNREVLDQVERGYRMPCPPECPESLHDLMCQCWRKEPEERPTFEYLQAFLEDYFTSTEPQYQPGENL

[14] = molecular target: T14, Zap70 (Homo sapiens, UniProt P43403); assay: AlphaScreen kinase assay, Zap70; conditions: read-out: IC50, activity toward kinase Zap70
T14 construct: P1868.pFastBac1 ZAP70 D327-G606 HIS, WT; His7 (HHHHHHH) (C); made in house
T14 sequence (P43403 with tags, fused parts or gaps): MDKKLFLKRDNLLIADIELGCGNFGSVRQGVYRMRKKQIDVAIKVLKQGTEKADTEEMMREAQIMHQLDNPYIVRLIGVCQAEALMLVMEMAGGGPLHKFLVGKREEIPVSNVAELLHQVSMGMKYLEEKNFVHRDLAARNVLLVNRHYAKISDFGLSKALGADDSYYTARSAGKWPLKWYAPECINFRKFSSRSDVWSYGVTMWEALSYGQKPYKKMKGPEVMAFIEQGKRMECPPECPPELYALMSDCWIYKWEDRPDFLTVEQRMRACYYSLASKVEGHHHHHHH
Method in brief: (§3)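 Eight concentrations per compound (1:3 serial dilution of 20 mM DMSO stock) were tested. Read-out: AlphaScreen signal from phospho-antibody acceptor and streptavidin donor beads bound to biotinylated peptide substrate, reduced on kinase inhibition.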

[15] = molecular target: Akt3 (Homo sapiens, UniProt Q9Y243); assay: AlphaScreen kinase assay, Akt3; conditions: read-out: IC50, activity toward kinase Akt3
Source text: as §1, §2

[16] = molecular target: T15, Jnk2 (Homo sapiens, UniProt P45984); assay: AlphaScreen kinase assay, Jnk2; conditions: read-out: IC50, activity toward kinase Jnk2
T15 construct: purchased Roche Protein Expression Group (Indianapolis, IN)
Method in brief: as §3

[17] = molecular target: T16, Pyk2 (Homo sapiens, UniProt Q14289); assay: AlphaScreen kinase assay, Pyk2; conditions: read-out: IC50, activity toward kinase Pyk2
T16 construct: purchased Upstate Biotechnology
T16 sequence (Q14289 whole entry): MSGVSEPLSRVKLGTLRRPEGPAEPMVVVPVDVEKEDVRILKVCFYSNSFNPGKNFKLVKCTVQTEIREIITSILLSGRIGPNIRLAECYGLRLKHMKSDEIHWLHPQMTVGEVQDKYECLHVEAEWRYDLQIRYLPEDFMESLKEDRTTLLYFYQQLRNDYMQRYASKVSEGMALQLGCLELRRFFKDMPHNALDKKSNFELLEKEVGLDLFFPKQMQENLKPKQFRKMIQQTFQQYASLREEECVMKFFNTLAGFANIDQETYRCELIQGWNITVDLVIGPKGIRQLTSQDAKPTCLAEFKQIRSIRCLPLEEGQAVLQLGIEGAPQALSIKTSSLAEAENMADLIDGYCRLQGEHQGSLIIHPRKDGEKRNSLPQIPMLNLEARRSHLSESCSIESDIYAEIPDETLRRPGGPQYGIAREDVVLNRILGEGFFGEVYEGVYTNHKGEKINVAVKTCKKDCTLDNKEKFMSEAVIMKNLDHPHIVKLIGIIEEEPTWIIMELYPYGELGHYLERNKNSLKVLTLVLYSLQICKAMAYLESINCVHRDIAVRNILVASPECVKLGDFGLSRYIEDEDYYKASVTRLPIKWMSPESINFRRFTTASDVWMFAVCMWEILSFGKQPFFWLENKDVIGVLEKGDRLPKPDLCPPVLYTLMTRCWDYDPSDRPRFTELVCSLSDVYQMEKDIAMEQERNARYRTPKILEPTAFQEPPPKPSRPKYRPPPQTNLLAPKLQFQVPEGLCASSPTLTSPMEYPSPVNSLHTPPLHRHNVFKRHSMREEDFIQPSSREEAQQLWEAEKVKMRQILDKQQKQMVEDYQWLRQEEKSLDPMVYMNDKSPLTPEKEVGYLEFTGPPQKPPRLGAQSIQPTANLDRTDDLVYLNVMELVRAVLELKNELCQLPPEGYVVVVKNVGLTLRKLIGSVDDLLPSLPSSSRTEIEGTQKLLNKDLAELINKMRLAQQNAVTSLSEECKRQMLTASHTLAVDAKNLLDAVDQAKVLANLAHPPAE

[18] = molecular target: MAP4K4 (Homo sapiens, UniProt O95819); assay: AlphaScreen kinase assay, MAP4K4; conditions: read-out: IC50, activity toward kinase MAP4K4
Chain of MAP4K4 (O95819 whole entry): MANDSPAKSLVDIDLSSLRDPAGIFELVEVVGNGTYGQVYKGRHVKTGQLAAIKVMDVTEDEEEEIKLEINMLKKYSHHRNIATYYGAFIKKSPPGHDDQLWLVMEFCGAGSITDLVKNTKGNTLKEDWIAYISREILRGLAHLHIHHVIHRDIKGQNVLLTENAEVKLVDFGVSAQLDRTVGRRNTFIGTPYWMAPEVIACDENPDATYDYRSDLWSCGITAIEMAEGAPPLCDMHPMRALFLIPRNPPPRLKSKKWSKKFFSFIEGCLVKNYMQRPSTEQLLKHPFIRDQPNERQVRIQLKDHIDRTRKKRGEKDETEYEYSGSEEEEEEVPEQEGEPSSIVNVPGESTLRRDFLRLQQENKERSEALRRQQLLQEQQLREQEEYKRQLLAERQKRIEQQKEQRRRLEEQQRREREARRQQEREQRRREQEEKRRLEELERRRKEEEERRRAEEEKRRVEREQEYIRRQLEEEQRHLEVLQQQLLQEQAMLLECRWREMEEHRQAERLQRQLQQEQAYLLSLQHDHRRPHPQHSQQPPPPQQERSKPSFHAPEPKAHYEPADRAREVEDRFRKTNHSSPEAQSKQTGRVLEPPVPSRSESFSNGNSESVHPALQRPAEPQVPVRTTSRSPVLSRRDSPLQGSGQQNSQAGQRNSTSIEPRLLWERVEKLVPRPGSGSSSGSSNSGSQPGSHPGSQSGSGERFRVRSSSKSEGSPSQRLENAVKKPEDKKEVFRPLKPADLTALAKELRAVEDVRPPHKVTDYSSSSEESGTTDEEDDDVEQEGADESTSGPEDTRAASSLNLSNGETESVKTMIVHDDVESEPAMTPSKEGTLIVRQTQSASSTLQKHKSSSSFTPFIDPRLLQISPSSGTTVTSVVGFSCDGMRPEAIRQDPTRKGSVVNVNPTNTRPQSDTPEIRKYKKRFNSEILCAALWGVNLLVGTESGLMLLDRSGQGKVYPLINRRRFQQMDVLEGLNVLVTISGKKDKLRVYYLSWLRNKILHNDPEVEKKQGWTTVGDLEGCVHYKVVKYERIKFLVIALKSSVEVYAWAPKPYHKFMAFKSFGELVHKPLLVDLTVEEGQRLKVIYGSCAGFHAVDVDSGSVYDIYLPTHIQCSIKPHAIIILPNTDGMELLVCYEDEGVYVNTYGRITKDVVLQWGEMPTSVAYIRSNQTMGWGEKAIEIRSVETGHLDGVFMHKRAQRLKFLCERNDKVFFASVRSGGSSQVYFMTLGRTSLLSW

[19] = molecular target: T17, Abl (Homo sapiens, UniProt P00519); assay: AlphaScreen kinase assay, Abl; conditions: read-out: activity toward kinase Abl, IC50
T17 construct: P1121. pET-SPEC BI-PTP Abl G227-V515-X; His6 (N); made in house; host or cells: E. coli (PTP1B co-expressed)
T17 sequence (P00519 with tags, fused parts or gaps): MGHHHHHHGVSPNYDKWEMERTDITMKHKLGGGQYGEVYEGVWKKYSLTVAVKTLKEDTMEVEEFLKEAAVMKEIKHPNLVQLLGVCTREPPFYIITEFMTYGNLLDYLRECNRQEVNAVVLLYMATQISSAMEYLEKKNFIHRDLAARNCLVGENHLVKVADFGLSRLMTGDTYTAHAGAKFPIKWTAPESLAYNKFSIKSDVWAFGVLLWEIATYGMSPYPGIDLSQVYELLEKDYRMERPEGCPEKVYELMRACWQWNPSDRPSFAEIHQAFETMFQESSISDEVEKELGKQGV
Source text: as §1, §2

[20] = molecular target: T18, Kdr (Homo sapiens, UniProt P35968); assay: Z'-Lyte FRET kinase assay (Invitrogen), Kdr; conditions: read-out: IC50, activity toward kinase Kdr
T18 construct: purchased Invitrogen (assay run by Invitrogen)

[21] = molecular target: T19, Stk6 (Homo sapiens, UniProt O14965); assay: Z'-Lyte FRET kinase assay (Invitrogen), Stk6; conditions: read-out: IC50, activity toward kinase Stk6
T19 construct: purchased Invitrogen (Carlsbad, Calif.), screening service
T19 sequence (O14965 1-403): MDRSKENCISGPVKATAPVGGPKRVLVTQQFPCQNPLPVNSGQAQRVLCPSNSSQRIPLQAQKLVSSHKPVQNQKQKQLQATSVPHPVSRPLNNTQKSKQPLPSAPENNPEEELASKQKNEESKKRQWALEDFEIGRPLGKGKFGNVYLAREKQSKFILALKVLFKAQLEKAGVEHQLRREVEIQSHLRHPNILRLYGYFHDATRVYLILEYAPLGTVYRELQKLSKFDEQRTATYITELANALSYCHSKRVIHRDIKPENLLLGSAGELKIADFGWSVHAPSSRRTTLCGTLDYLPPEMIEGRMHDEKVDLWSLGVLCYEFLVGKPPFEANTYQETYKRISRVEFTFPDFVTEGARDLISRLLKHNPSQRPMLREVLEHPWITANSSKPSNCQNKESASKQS

[22] = read-out: IC50, activity toward kinase B-Raf
[23] = read-out: IC50, activity toward kinase B-Raf V600E

IC50 [1, 22] [µM]	IC50 [2, 23] [µM]	IC50 [3] [µM]	IC50 [4] [µM]	IC50 [5] [µM]	IC50 [6] [µM]	IC50 [7] [µM]	IC50 [8] [µM]	IC50 [10] [µM]	IC50 [11] [µM]	IC50 [12] [µM]	IC50 [13] [µM]	IC50 [16] [µM]	IC50 [17] [µM]	IC50 [18] [µM]	IC50 [19] [µM]	IC50 [20] [µM]	Compound	also measured
	≤ 10	≤ 10	≤ 10	≤ 10		≤ 10			≤ 10	≤ 10				≤ 10			CS(=O)(=O)Nc1ccc(F)c(C(=O)c2c[nH]c3ncccc23)c1F [Compound P-0811]	
≤ 10	≤ 10	≤ 10							≤ 10								Clc1ccc(Nc2ccnc3[nH]ccc23)cc1Cl [Compound P-0842]	IC50 [14]: ≤ 10 µM
									≤ 10						≤ 10		S=C(NCc1cccnc1)NCc1c[nH]c2ncccc12 [Compound P-1012]	

More lines, now with the values behind:

Compound	IC50 [1, 22] [µM]	IC50 [2, 23] [µM]	IC50 [3] [µM]	IC50 [4] [µM]	IC50 [5] [µM]	IC50 [6] [µM]	IC50 [7] [µM]	IC50 [8] [µM]	IC50 [10] [µM]	IC50 [11] [µM]	IC50 [12] [µM]	IC50 [13] [µM]	IC50 [16] [µM]	IC50 [17] [µM]	IC50 [18] [µM]	IC50 [19] [µM]	IC50 [20] [µM]	also measured
NC(=O)c1cccc(-c2cnc3[nH]cc(C(=O)c4cc(O)ccc4F)c3c2)c1 [Compound P-0037, 3-[3-(2-Fluoro-5-hydroxy-benzoyl)-1H-pyrrolo[2,3-b]pyridin-5-yl]-benzamide]	≤ 10	≤ 10	≤ 10	≤ 10	≤ 10	≤ 10	≤ 10	≤ 10	≤ 10	≤ 10	≤ 10	≤ 10						IC50 [9]: ≤ 10 µM; IC50 [14]: ≤ 10 µM; IC50 [15]: ≤ 10 µM
O=C(c1c(F)ccc(NS(=O)(=O)c2ccccc2)c1F)c1c[nH]c2ncc(-c3cccnc3)cc12 [Compound P-0685, N-[2,4-Difluoro-3-(5-pyridin-3-yl-1H-pyrrolo[2,3-b]pyridine-3-carbonyl)-phenyl]-benzenesulfonamide]	≤ 10	≤ 10	≤ 10	≤ 10	≤ 10	≤ 10	≤ 10	≤ 10	≤ 10	≤ 10		≤ 10	≤ 10	≤ 10	≤ 10			
COc1cccc(Cc2c[nH]c3ncc(-c4ccc(N)cc4)cc23)c1 [Compound P-0140]					≤ 10			≤ 10	≤ 10	≤ 10	≤ 10		≤ 10			≤ 10	≤ 10	IC50 [1]: ≤ 10 µM; IC50 [2]: ≤ 10 µM; IC50 [21]: ≤ 10 µM
O=C(Nc1ccc(Cc2c[nH]c3ncccc23)cc1)Nc1ccc(Cl)c(C(F)(F)F)c1 [Compound P-0369]	≤ 10	≤ 10	≤ 10		≤ 10		≤ 10		≤ 10	≤ 10	≤ 10			≤ 10	≤ 10		≤ 10	
S=C(NCc1ccncc1)NCc1c[nH]c2ncccc12 [Compound P-0781]										≤ 10						≤ 10		
COc1cccc(Cc2c[nH]c3ncc(-c4cccnc4)cc23)c1F [Compound P-0269, 3-(2-Fluoro-3-methoxy-benzyl)-5-pyridin-3-yl-1H-pyrrolo[2,3-b]pyridine]	≤ 10	≤ 10	≤ 10	≤ 10	≤ 10	≤ 10	≤ 10	≤ 10	≤ 10	≤ 10	≤ 10	≤ 10	≤ 10	≤ 10	≤ 10		≤ 10	IC50 [9]: ≤ 10 µM; IC50 [21]: ≤ 10 µM
